# “Also recorded” adds a separate entry of the source. Read-outs that look alike come from different tables or passages of the source.
# Legend:
# Aβ40 = assay: ThT fluorescence assay, Aβ40 fibrillation; assay type: biochemical, human
# Protocol: ThT fluorescence emission measurements were carried out using a BioTek Synergy H1 multimode microplate reader and Greiner Bio-One non-binding microplates #781906 mainly as described in ref. [11]. […] ThT fluorescence was excited at 440 nm and emission at 485 nm was measured for 190 h every 30 min, with orbital shaking prior to each measurement. […] The lag time, tlag, is calculated as (t0 − 2/kapp).
# [1] = parameters: method as in PMID 4202799; conditions: at therapeutic levels; ref [24]; cited from earlier work
# mouse models of AD = system: mouse models of AD; parameters: method as in 6 sources, ref [28]–[35] = [28]; PMID 15817521; doi:10.1093/brain/awh452; 28. Heneka M.T. Sastre M. Dumitrescu-Ozimek L. Hanke A. Dewachter I. Kuiperi C. O’Banion K. Klockgether T. Van Leuven F. Landreth G.E. Acute treatment with the PPARgamma agonist pioglitazone and ibupr || [29]; PMID 18374906; doi:10.1016/j.brainres.2008.01.095; 29. McKee A.C. Carreras I. Hossain L. Ryu H. Klein W.L. Oddo S. LaFerla F.M. Jenkins B.G. Kowall N.W. Dedeoglu A. Ibuprofen reduces Abeta, hyperphosphorylated tau and memory deficits in Alzheimer mice || [30]; PMID 19679126; doi:10.1016/j.expneurol.2009.07.032; 30. Choi J.K. Jenkins B.G. Carreras I. Kaymakcalan S. Cormier K. Kowall N.W. Dedeoglu A. Anti-inflammatory treatment in AD mice protects against neuronal pathology Exp. Neurol. 2010 223 377 384 10.101 || [31]; PMID 27190010; doi:10.1093/brain/aww117; 31. Woodling N.S. Colas D. Wang Q. Minhas P. Panchal M. Liang X. Mhatre S.D. Brown H. Ko N. Zagol-Ikapitte I. Cyclooxygenase inhibition targets neurons to prevent early behavioural decline in Alzheime || [32]; PMID 12930788; doi:10.1523/JNEUROSCI.23-20-07504.2003; 32. Yan Q. Zhang J. Liu H. Babu-Khan S. Vassar R. Biere A.L. Citron M. Landreth G. Anti-inflammatory drug therapy alters beta-amyloid processing and deposition in an animal model of Alzheimer’s diseas ||| ref [28],[29],[30],[32],[33],[34],[35] = [28]; PMID 15817521; doi:10.1093/brain/awh452; 28. Heneka M.T. Sastre M. Dumitrescu-Ozimek L. Hanke A. Dewachter I. Kuiperi C. O’Banion K. Klockgether T. Van Leuven F. Landreth G.E. Acute treatment with the PPARgamma agonist pioglitazone and ibupr || [29]; PMID 18374906; doi:10.1016/j.brainres.2008.01.095; 29. McKee A.C. Carreras I. Hossain L. Ryu H. Klein W.L. Oddo S. LaFerla F.M. Jenkins B.G. Kowall N.W. Dedeoglu A. Ibuprofen reduces Abeta, hyperphosphorylated tau and memory deficits in Alzheimer mice || [30]; PMID 19679126; doi:10.1016/j.expneurol.2009.07.032; 30. Choi J.K. Jenkins B.G. Carreras I. Kaymakcalan S. Cormier K. Kowall N.W. Dedeoglu A. Anti-inflammatory treatment in AD mice protects against neuronal pathology Exp. Neurol. 2010 223 377 384 10.101 || [32]; PMID 12930788; doi:10.1523/JNEUROSCI.23-20-07504.2003; 32. Yan Q. Zhang J. Liu H. Babu-Khan S. Vassar R. Biere A.L. Citron M. Landreth G. Anti-inflammatory drug therapy alters beta-amyloid processing and deposition in an animal model of Alzheimer’s diseas || [33]; PMID 10908610; doi:10.1523/JNEUROSCI.20-15-05709.2000; 33. Lim G.P. Yang F. Chu T. Chen P. Beech W. Teter B. Tran T. Ubeda O. Ashe K.H. Frautschy S.A. Ibuprofen suppresses plaque pathology and inflammation in a mouse model for Alzheimer’s disease J. Neuro ||| ref [28] = [28]; PMID 15817521; doi:10.1093/brain/awh452; 28. Heneka M.T. Sastre M. Dumitrescu-Ozimek L. Hanke A. Dewachter I. Kuiperi C. O’Banion K. Klockgether T. Van Leuven F. Landreth G.E. Acute treatment with the PPARgamma agonist pioglitazone and ibupr ||| ref [32] = [32]; PMID 12930788; doi:10.1523/JNEUROSCI.23-20-07504.2003; 32. Yan Q. Zhang J. Liu H. Babu-Khan S. Vassar R. Biere A.L. Citron M. Landreth G. Anti-inflammatory drug therapy alters beta-amyloid processing and deposition in an animal model of Alzheimer’s diseas ||| ref [33],[34] = [33]; PMID 10908610; doi:10.1523/JNEUROSCI.20-15-05709.2000; 33. Lim G.P. Yang F. Chu T. Chen P. Beech W. Teter B. Tran T. Ubeda O. Ashe K.H. Frautschy S.A. Ibuprofen suppresses plaque pathology and inflammation in a mouse model for Alzheimer’s disease J. Neuro || [34]; PMID 15688088; doi:10.1038/sj.npp.1300668; 34. Morihara T. Teter B. Yang F. Lim G.P. Boudinot S. Boudinot F.D. Frautschy S.A. Cole G.M. Ibuprofen suppresses interleukin-1beta induction of pro-amyloidogenic alpha1-antichymotrypsin to ameliorate ||| ...; conditions: cited from earlier work
# HSA = conditions: cited from earlier work
# [2] = 20 µM IBU, no HSA, 20 µM Aβ40, 30 °C, Boltzmann sigmoid function, n = 3–5
smiles,measurement,setting,value
"CC(C)Cc1ccc(C(C)C(=O)O)cc1 (stereo not shown) [IBU, 2-[4-(2-methylpropyl)phenyl]propanoic acid]",effect of IBU on suppression of Aβ40 fibrillation by HSA,"Aβ40; 20 µM IBU + 2 µM HSA, 20 µM Aβ40, 30 °C, pH 7.4",strengthens the suppression of Aβ40 fibrillation by 2 µM HSA; also recorded: favors the suppression of fibrillation of 20 µM Aβ40 by 2 µM HSA
same,decline in tlag in response to IBU,"Aβ40; 20 µM IBU in presence of 2 µM HSA, 20 µM Aβ40, 30 °C, n = 3–5",21%
same,minor opposite effects of IBU on lag phase and rate constant,"Aβ40; 20 µM IBU, 2 µM HSA, 20 µM Aβ40",shortening of the lag phase and decrease in the apparent rate constant of the process
same,suppression of fibrillation by IBU alone,"Aβ40; 20 µM IBU, 20 µM Aβ40, no HSA, 30 °C, pH 7.4",does not induce statistically significant suppression of the fibrillation process
same,effect on apparent rate constant kapp,Aβ40; [2],did not affect the kapp value
same,factor of shortening of lag phase (tlag),Aβ40; [2],2
same,decrease in apparent rate constant kapp,"Aβ40; combination of 2 µM HSA and 20 µM IBU, 20 µM Aβ40, 30 °C, n = 3–5",17%
same,bound to blood plasma proteins,[1],99%
same,neuroprotective effects of IBU intake,"mouse models of AD; mouse models of AD, ref [28]–[35]","suppression of the inflammatory processes, reduction in the Aβ sprand tau protein depositions, and lowering of the cognitive and memory deficits"
same,mechanism ascribed to reduced Aβ deposition,mouse models of AD; ref [28],downregulation of β-secretase 1 and COX-2
same,mechanism ascribed to reduced Aβ deposition,mouse models of AD; ref [32],reduction in Aβ42 production
same,mechanism ascribed to reduced Aβ deposition,"mouse models of AD; ref [33],[34]",inhibition of interleukin-1β and its downstream target α1-antichymotrypsin
same,mechanism ascribed to reduced Aβ deposition,mouse models of AD; ref [35],attenuation of NADPH oxidase activation and reactive oxygen species production
same,brain deposition of Aβ upon treatment with IBU,"mouse models of AD; several mouse AD models, ref [28],[29],[30],[32],[33],[34],[35]",reduction in brain deposition of Aβ
same,effect of IBU on HSA affinity to heme,"HSA; ref [74],[75]",allosterically affect HSA affinity to heme
same,effect of IBU binding on HSA affinity to lorazepam,HSA; ref [76],enhanced its affinity to lorazepam

# Source: paper PMC9181795, “Ibuprofen Favors Binding of Amyloid-β Peptide to Its Depot, Serum Albumin” (International Journal of Molecular Sciences, 2022)
